# Columns and labels:
# [1] = Displacement of [3H]phorbol-12,13-dibutyrate from mouse brain protein kinase C
# [2] = biological target: Protein kinase C alpha type (Rattus norvegicus, UniProt P05696); assay: Displacement of [3H]phorbol-12,13-dibutyrate from rat brain protein kinase C alpha
SMILES,Ki [1],Ki [2]
CCCCCCCCCCCCCC(=O)O[C@H]1CC(=O)O[C@@H]1CO,5.3 µM,–
CCCCCCCCCCCCCC(=O)O[C@H]1CCC(=O)O[C@@H]1CO,30.5 µM,–
CCCCCCCCCCCCCC(=O)O[C@@H]1CCCC(=O)O[C@H]1CO,–,41 µM
CCCCCCCCCCCCCC(=O)O[C@@H]1CC(=O)O[C@H]1CO,2.5 µM,–
CCCCCCCCCCCCCC(=O)O[C@@H]1CCC(=O)O[C@H]1CO,2.8 µM,–

# Source: ChEMBL document CHEMBL1151529, “Conformationally constrained analogues of DAG.7. Interaction of a medium-size -lactone with protein kinase C (PK-C)_” (Bioorg Med Chem Lett, 1994)
